Measured values published in ChEMBL document CHEMBL1158961, “Picrasinoside H, a new quassinoid glucoside, and related compounds from the stem wood of Picrasma ailanthoides” (1991).

Legend:
Format in all cases: functional
Settings in all cases: read-out: ED50 (the source's name)
P388 = test: Cytotoxicity against mouse P388 cells
[1] = Cytotoxicity against human RPMI cells
KB = test: Cytotoxicity against human KB cells
HCT-8 = test: Cytotoxicity against human HCT8 cells
A549 = test: Cytotoxicity against human A549 cells
TE-671 = test: Cytotoxicity against human TE671 cells

Measured: EC50

COC1=C[C@@H](C)[C@@H]2C[C@H]3O[C@@H](O[C@@H]4O[C@H](CO)[C@@H](O)[C@H](O)[C@H]4O)C[C@H]4C(C)=C(OC)C(=O)[C@H]([C@@]2(C)C1=O)[C@@]34C [PICRASINOSIDE B]
≤ 4 µg/mL: all assays above

COC1=C[C@@H](C)[C@@H]2C[C@H]3O[C@@H](O[C@@H]4O[C@H](CO)[C@@H](O)[C@H](O)[C@H]4O)C[C@H]4[C@](C)(O)[C@H](OC)[C@@H](OC(C)=O)[C@H]([C@@]2(C)C1=O)[C@@]34C [PICRASINOSIDE E]
≤ 4 µg/mL: all assays above

COC1=C[C@@H](C)C2C[C@H]3O[C@@H](O[C@@H]4O[C@H](CO)[C@@H](O)[C@H](O)[C@H]4O)C[C@H]4[C@@H](C)[C@@H]5OCO[C@H]5[C@@H]([C@@]34C)[C@@]2(C)C1=O (stereo not given in full) [PICRASINOSIDE C]
≤ 4 µg/mL: all assays above

COC1=C[C@@H](C)[C@@H]2C[C@H]3O[C@@H](O[C@@H]4O[C@H](CO)[C@@H](O)[C@H](O)[C@H]4O)C[C@H]4[C@](C)(OC(C)=O)[C@@H]5OCO[C@H]5[C@H]([C@@]2(C)C1=O)[C@@]34C [PICRASINOSIDE H]
≤ 4 µg/mL: all assays above

COC1=C[C@@H](C)[C@@H]2C[C@H]3O[C@@H](O[C@@H]4O[C@H](CO)[C@@H](O)[C@H](O)[C@H]4O)C[C@H]4[C@](C)(O)[C@H](OC)[C@@H](O)[C@H]([C@@]2(C)C1=O)[C@@]34C [PICRASINOSIDE G]
not listed: TE-671
≤ 4 µg/mL: all other assays above

COC1=C[C@@H](C)[C@@H]2C[C@H]3O[C@@H](O[C@@H]4O[C@H](CO)[C@@H](O)[C@H](O)[C@H]4O)C[C@H]4[C@@H](C)[C@H](OC)[C@@H](OC(C)=O)[C@H]([C@@]2(C)C1=O)[C@@]34C [PICRASINOSIDE D]
≤ 4 µg/mL: all assays above
